Experiments:
PaIPNS = biological target: T1, PaIPNS (Pseudomonas aeruginosa, UniProt Q9HWJ0); assay: anaerobic UV-visible difference spectroscopy (MLCT); assay type: binding; conditions: Fe(II) 1 mM, dithionite 2 mM, 25 mM HEPES pH 7.5
T1 construct: gene PA4191; synthetic codon-optimised gene in pET28a, E. coli; N-terminal His6 tag removed by TEV; EDTA-treated apoprotein reconstituted with Fe(II)
T1 sequence (Q9HWJ0 1-334): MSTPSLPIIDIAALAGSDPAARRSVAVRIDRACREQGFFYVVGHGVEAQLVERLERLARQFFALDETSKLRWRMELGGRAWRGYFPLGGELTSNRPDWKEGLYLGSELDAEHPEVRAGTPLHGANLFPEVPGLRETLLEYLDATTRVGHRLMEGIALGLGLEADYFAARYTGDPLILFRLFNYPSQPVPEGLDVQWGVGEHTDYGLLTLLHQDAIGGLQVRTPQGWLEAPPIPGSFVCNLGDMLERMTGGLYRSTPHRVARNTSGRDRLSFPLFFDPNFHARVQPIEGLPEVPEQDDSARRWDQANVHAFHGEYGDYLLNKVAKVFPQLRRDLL

[1] = system: T2, Anc357 (synthetic construct); assay: as above; assay type: binding; conditions: Fe(II)
T2 construct: pET28a, E. coli; N-terminal His6 tag removed by TEV; 37,413 Da expected after cleavage; monomer

Din11 = biological target: T3, Din11 (Arabidopsis thaliana, UniProt Q8H113); assay: P5C formation, colorimetric assay; assay type: biochemical; conditions: 2OG 6.67 mM, L-Arg 6.67 mM, Fe(II) 0.4 mM, ascorbate 0.8 mM, HEPES pH 7.5, room temperature
T3 construct: gene 2ODDC23.2; synthetic codon-optimised gene in pET28a, E. coli; N-terminal His6 tag, removed by TEV; Fe(II) added
T3 sequence (Q8H113 1-357): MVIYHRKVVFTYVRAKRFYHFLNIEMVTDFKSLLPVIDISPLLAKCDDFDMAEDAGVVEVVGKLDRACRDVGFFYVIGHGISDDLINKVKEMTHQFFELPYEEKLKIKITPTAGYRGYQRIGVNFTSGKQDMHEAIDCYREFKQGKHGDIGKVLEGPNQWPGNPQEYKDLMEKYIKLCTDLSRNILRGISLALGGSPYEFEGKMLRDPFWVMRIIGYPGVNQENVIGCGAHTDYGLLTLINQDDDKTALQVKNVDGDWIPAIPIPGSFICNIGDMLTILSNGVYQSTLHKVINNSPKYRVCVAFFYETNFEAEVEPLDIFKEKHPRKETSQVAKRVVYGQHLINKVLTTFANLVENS

Structure (SMILES)	anaerobic UV-visible difference spectroscopy (MLCT) (PaIPNS)	anaerobic UV-visible difference spectroscopy (MLCT) [1]	P5C formation, colorimetric assay (Din11)
O=C(O)CCC(=O)C(=O)O [2OG]	The PaIPNS spectra clearly demonstrated that PaIPNS binds 2OG	consistent with 2OG binding (Figure S6)	–
N=C(N)NCCC[C@H](N)C(=O)O [L-Arg]	–	–	this enzyme hydroxylated L-Arg to produce P5C
